One test has as its target T1, CDK2/CycE (Homo sapiens, UniProt P24941).
T1 construct: GST; purchased ProQinase GmbH (Freiburg, Germany); host or cells: insect cells (Sf9)
The test can be described thus: CDK2/CycE kinase assay (Method 2a, TR-FRET). In kind it is biochemical. Particulars: 10 μM ATP. The text has this:
2a. CDK2/CycE kinase assay:
CDK2/CycE-Inhibitory Activity of Compounds of the Present Invention was Quantified Employing the CDK2/CycE TR-FRET Assay as Described in the Following Paragraphs:
Recombinant fusion proteins of GST and human CDK2 and of GST and human CycE, expressed in insect cells (Sf9) and purified by Glutathion-Sepharose affinity chromatography, were purchased from ProQinase GmbH (Freiburg, Germany). As substrate for the kinase reaction biotinylated peptide biotin-Ttds-YISPLKSPYKISEG (C-terminus in amid form) was used which can be purchased e.g. form the company JERINI Peptide Technologies (Berlin, Germany).
For the assay 50 nl of a 100 fold concentrated solution of the test compound in DMSO was pipetted into a black low volume 384 well microtiter plate (Greiner Bio-One, Frickenhausen, Germany), 2 yl of a solution of CDK2/CycE in aqueous assay buffer [50 mM Tris/HCl pH 8.0, 10 mM MgCl2, 1.0 mM dithiothreitol, 0.1 mM sodium ortho-vanadate, 0.01% (v/v) Nonidet-P40 (Sigma)] were added and the mixture was incubated for 15 min at 22° C. to allow pre-binding of the test compounds to the enzyme before the start of the kinase reaction. […] The concentration of CDK2/CycE was adjusted depending of the activity of the enzyme lot and was chosen appropriate to have the assay in the linear range, typical concentrations were in the range of 130 ng/mL. The reaction was stopped by the addition of 5 yl of a solution of TR-FRET detection reagents (0.2 μM streptavidine-XL665 [Cisbio Bioassays, Codolet, France] and 1 nM anti-RB(pSer807/pSer811)-antibody from BD Pharmingen [#558389] and 1.2 nM LANCE EU-W1024 labeled anti-mouse IgG antibody [Perkin-Elmer, product no. AD0077]) in an aqueous EDTA-solution (100 mM EDTA, 0.2% (w/v) bovine serum albumin in 100 mM HEPES/NaOH pH 7.0).
The resulting mixture was incubated 1 h at 22° C. to allow the formation of complex between the phosphorylated biotinylated peptide and the detection reagents. Subsequently the amount of phosphorylated substrate was evaluated by measurement of the resonance energy transfer from the Eu-chelate to the streptavidine-XL. Therefore, the fluorescence emissions at 620 nm and 665 nm after excitation at 350 nm was measured in a TR-FRET reader, e.g. a Rubystar (BMG Labtechnologies, Offenburg, Germany) or a Viewlux (Perkin-Elmer). The ratio of the emissions at 665 nm and at […] was taken as the measure for the amount of phosphorylated substrate. The data were normalised (enzyme reaction without inhibitor=0% inhibition, all other assay components but no enzyme=100% inhibition).
(In TR-FRET formats the signal depends on donor and acceptor labels being close together.)

In another test the test system is NCI-H460 cells. Briefly: Proliferation assay NCI-H460 (Method 3). Type of test: cell-based, human. Conditions: Homo sapiens, NCI-H460, 96 h, NCI-H460, 4 days, crystal violet; read-out: Inhibition of NCI-H460 cell proliferation IC50. How it is done: (§1) Cultivated tumour cells (HeLa, human cervical tumour cells, ATCC CCL-2; NCI-H460, human non-small cell lung carcinoma cells, ATCC HTB-177; A2780, human ovarian carcinoma cells, ECACC #93112519; DU 145, hormone-independent human prostate carcinoma cells, ATCC HTB-81; HeLa-MaTu-ADR, multidrug-resistant human cervical carcinoma cells, EPO-GmbH Berlin; Caco-2, human colorectal carcinoma cells, ATCC HTB-37; B16F10, mouse melanoma cells, ATCC CRL-6475) were plated at a density of 5,000 cells/well (DU145, HeLa-MaTu-ADR), 3,000 cells/well (NCI-H460, HeLa), 2,500 cells/well (A2780), 1,500 cells/well (Caco-2), or 1,000 cells/well (B16F10) in a 96-well multititer plate in 200 μL of their respective growth medium supplemented 10% fetal calf serum. After 24 hours, the cells of one plate (zero-point plate) were stained with crystal violet (see below), while the medium of the other plates was replaced by fresh culture medium (200 μl), to which the test substances were added in various concentrations (0 μM, as well as in the range of 0.001-10 μM; the final concentration of the solvent dimethyl sulfoxide was 0.5%). The cells were incubated for 4 days in the presence of test substances. Cell proliferation was determined by staining the cells with crystal violet: the cells were fixed by adding 20 μl/measuring point of an 11% glutaric aldehyde solution for 15 minutes at room temperature. After three washing cycles of the fixed cells with water, the plates were dried at room temperature. The cells were stained by adding 100 μl/measuring point of a 0.1% crystal violet solution (pH 3.0). After three washing cycles of the stained cells with water, the plates were dried at room temperature. The dye was dissolved by adding 100 μl/measuring point of a 10% acetic acid solution. The extinction was determined by photometry at a wavelength of 595 nm. The change of cell number, in percent, was calculated by normalization of the measured values to the extinction values of the zero-point plate (=0%) and the extinction of the untreated (0 μm) cells (=100%). The IC50 values (inhibitory concentration at 50% of maximal effect) were determined by means of a 4 parameter fit.

Another test relates to B16F10 cells. Briefly: Proliferation assay B16F10 (Method 3). In kind it is cell-based, mouse. Conditions: Mus musculus, B16-F10, 96 h, 4 days, crystal violet; read-out: Inhibition of Bc6F10 cell proliferation IC50. How it is done:
as §1

The source of these data is US9884849B2, “Fluorinated benzofuranyl-pyrimidine derivatives containing a sulfoximine group” (Bayer Pharma Aktiengesellschaft, priority 2014, dated 2018).

For the molecule `CS(=O)(Cc1cc(F)cc(Nc2ncc(F)c(-c3ccc(F)c4ccoc34)n2)c1)=NC#N` (single isomer, unassigned) [Example 8, [(3-Fluoro-5-{[5-fluoro-4-(4-fluoro-1-benzofuran-7-yl)pyrimidin-2-yl]amino}benzyl)(methyl)-oxido-λ^6-sulfanylidene]cyanamide], the IC50 was 0.062 µM at CDK2/CycE, 0.119 µM with NCI-H460 cells and 0.056 µM in the test on B16F10 cells.

In the case of `CS(=O)(Cc1cc(F)cc(Nc2ncc(F)c(-c3ccc(F)c4ccoc34)n2)c1)=NC#N` (racemic) [Example 7, (rac)-[(3-Fluoro-5-{[5-fluoro-4-(4-fluoro-1-benzofuran-7-yl)pyrimidin-2-yl]amino}benzyl)(methyl)-oxido-λ^6-sulfanylidene]cyanamide], the results for the IC50 at CDK2/CycE, with NCI-H460 cells and in the test on B16F10 cells were 0.056 µM, 0.104 µM and 0.064 µM, respectively.

Turning to `CS(=O)(Cc1cccc(Nc2ncc(F)c(-c3ccc(F)c4ccoc34)n2)c1)=NC#N` (racemic) [Example 1, (rac)-[(3-{[5-Fluoro-4-(4-fluoro-1-benzofuran-7-yl)pyrimidin-2-yl]amino}benzyl)(methyl)oxido-λ^6-sulfanylidene]cyanamide], the IC50 at CDK2/CycE was 0.075 µM; in the test with NCI-H460 cells, 0.189 µM; in the test on B16F10 cells, 0.17 µM.

For the molecule `CS(=N)(=O)Cc1cc(Nc2ncc(F)c(-c3ccc(F)c4ccoc34)n2)cc(S(F)(F)(F)(F)F)c1` (racemic) [Example 18, (rac)-5-Fluoro-4-(4-fluoro-1-benzofuran-7-yl)-N-{3-[(S-methylsulfonimidoyl)methyl]-5-(pentafluoro-λ^6-sulfanyl)phenyl}pyrimidin-2-amine], the figures for the IC50 at CDK2/CycE, with NCI-H460 cells and in the test with B16F10 cells were 0.073 µM, 0.136 µM and 0.168 µM, respectively.
